Assay results as given in ChEMBL document CHEMBL5356960, “Discovery of Selective and Orally Available Galectin-1 Inhibitors” (J Med Chem, 2023).
Activity calls are given as the source filed them. The calls are words filed in the database; no cut-off is given here.

Experiments:
Galectin-3 [1] = molecular target: T1, Galectin-3 (Homo sapiens, UniProt P17931); experiment: Binding affinity to human galectin-3 assessed as dissociation constant by fluorescence polarization assay
Galectin-1 [2] = molecular target: T2, Galectin-1 (Homo sapiens, UniProt P09382); experiment: Binding affinity to human galectin 1 assessed as dissociation constant incubated for 30 mins in presence of TDGA probe by fluorescence polarization assay
T2 sequence (P09382 whole entry): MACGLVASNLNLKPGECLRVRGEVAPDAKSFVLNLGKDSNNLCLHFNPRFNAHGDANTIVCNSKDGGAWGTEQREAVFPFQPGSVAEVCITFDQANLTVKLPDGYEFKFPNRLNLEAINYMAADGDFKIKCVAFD

[3] = Metabolic stability in mouse hepatocytes assessed as intrinsic clearance measured per 10^6 cells at 2 uM incubated for 15 to 120 mins by LC-MS/MS analysis; assay type: ADME, cell-based, Hepatocyte; conditions: time 15-120 min, read-out: CLH
[4] = Metabolic stability in human hepatocytes assessed as intrinsic clearance measured per 10^6 cells at 2 uM incubated for 15 to 120 mins by LC-MS/MS analysis; assay type: ADME, cell-based, Hepatocyte; conditions: time 15-120 min, read-out: CLH
[5] = Apparent permeability from basolateral to apical side in human Caco-2 cells at 10 uM incubated for 90 mins by LC-MS/MS analysis; assay type: ADME, cell-based
[6] = Apparent permeability from apical to basolateral side in human Caco-2 cells at 10 uM incubated for 90 mins by LC-MS/MS analysis; assay type: ADME, cell-based
[7] = Protein binding in mouse plasma assessed as unbound fraction at 2 uM incubated for 5 hrs by equilibrium dialysis based LC-MS/MS analysis; assay type: ADME, cell-free
[8] = Lipophilicity, logD of compound at pH 7.4 preincubated with octanol for 5 mins followed by phosphate buffer addition and measured after 1 hrs by shakeflask method based LC-MS/MS analysis; assay type: physicochemical; conditions: time 65 min
[9] = Protein binding in human plasma assessed as unbound fraction at 2 uM incubated for 5 hrs by equilibrium dialysis based LC-MS/MS analysis; assay type: ADME, cell-free
Galectin-3 [10] = molecular target: T1, Galectin-3; experiment: Binding affinity to galectin-3 (unknown origin) assessed as dissociation constant
Galectin-1 [11] = molecular target: T2, Galectin-1; experiment: Binding affinity to galectin-1 (unknown origin) assessed as dissociation constant
Jurkat [12] = experiment: Inhibition of galectin-1 induced apoptosis in human Jurkat T cells assessed as reduction in caspase-3 activation upto 24 uM incubated for 24 hrs by CellEvent caspase-3/7 green fluorescent detection reagent based imaging analysis; assay type: functional, cell-based
Galectin-3 [13] = molecular target: T1, Galectin-3; experiment: Binding affinity to human galectin-3 assessed as dissociation constant by SPR analysis
Galectin-9 [14] = molecular target: T3, Galectin-9 (Homo sapiens, UniProt O00182); experiment: Binding affinity to C-terminal human Galectin-9 assessed as dissociation constant by fluorescence polarization assay
T3 sequence (O00182 whole entry): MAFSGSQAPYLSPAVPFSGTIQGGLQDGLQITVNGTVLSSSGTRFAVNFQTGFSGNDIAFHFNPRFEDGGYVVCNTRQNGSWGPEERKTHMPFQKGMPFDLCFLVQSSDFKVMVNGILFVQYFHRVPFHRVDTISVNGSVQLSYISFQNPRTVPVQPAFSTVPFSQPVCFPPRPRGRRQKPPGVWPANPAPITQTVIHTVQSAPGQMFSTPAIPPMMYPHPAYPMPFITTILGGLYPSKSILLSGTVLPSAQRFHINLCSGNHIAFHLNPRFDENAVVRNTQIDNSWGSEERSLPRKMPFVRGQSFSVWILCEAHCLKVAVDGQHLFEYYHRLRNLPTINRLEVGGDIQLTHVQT

Galectin-4 [15] = molecular target: T4, Galectin-4 (Homo sapiens, UniProt P56470); experiment: Binding affinity to C-terminal human Galectin-4 assessed as dissociation constant by fluorescence polarization assay
T4 sequence (P56470 whole entry): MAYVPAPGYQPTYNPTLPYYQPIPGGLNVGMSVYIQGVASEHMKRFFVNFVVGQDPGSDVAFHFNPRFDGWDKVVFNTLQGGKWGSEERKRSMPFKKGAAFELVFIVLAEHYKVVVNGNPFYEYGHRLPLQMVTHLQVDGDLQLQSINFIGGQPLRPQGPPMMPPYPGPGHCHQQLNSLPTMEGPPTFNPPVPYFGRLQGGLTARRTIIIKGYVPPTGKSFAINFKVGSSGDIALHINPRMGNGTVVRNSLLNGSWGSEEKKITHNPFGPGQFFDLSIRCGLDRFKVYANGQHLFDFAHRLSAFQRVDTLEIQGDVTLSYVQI

Galectin-8 [16] = molecular target: T5, Galectin-8 (Homo sapiens, UniProt O00214); experiment: Binding affinity to N-terminal human Galectin-8 assessed as dissociation constant by fluorescence polarization assay
T5 sequence (O00214 whole entry): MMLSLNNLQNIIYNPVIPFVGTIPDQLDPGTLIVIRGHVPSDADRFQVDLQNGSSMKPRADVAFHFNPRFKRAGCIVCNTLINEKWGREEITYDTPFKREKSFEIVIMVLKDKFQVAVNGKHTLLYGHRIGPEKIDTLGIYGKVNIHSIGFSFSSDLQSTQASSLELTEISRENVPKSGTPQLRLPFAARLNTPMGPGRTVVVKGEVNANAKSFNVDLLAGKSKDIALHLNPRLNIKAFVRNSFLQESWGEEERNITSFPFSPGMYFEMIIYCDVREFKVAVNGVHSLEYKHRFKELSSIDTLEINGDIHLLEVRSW

Galectin-1 [17] = molecular target: T2, Galectin-1; experiment: Binding affinity to human galectin-1 assessed as dissociation constant by SPR analysis
[18] = Cmax in C57BL/6 mouse at 10 mg/kg, po or 1 mg/kg, iv by HPLC analysis; assay type: ADME, organism-based; design: dose 10 mg/kg, route po; conditions: in vivo
Galectin-4 [19] = molecular target: T4, Galectin-4; experiment: Binding affinity to N-terminal human Galectin-4 assessed as dissociation constant by fluorescence polarization assay
Galectin-3 [20] = molecular target: T6, Galectin-3 (Mus musculus, UniProt P16110); experiment: Binding affinity to mouse Galectin-3 assessed as dissociation constant by fluorescence polarization assay
T6 sequence (P16110 whole entry): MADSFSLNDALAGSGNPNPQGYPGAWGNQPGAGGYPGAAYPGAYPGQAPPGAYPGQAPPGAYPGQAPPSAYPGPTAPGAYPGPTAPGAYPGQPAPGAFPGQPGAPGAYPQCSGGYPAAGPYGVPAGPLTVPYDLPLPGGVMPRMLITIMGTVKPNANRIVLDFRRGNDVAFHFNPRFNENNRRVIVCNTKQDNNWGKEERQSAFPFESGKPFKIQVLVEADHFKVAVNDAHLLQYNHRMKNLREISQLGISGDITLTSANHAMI

Galectin-9 [21] = molecular target: T3, Galectin-9; experiment: Binding affinity to N-terminal human Galectin-9 assessed as dissociation constant by fluorescence polarization assay
[22] = Oral bioavailability in C57BL/6 mouse at 10 mg/kg measured upto 24 hrs by HPLC analysis; assay type: ADME, organism-based; conditions: in vivo
Galectin-7 = Galectin-7 (Homo sapiens, UniProt P47929); experiment: Binding affinity to human Galectin-7 assessed as dissociation constant by fluorescence polarization assay
Galectin-7, sequence (P47929 whole entry): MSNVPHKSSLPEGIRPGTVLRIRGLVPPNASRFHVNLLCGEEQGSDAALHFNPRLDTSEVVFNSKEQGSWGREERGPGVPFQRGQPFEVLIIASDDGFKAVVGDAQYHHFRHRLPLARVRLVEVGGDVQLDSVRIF

A549 = experiment: Cytotoxicity against human A549 cells assessed as reduction in cell viability incubated for 72 hrs by MTT assay relative to control; assay type: toxicity, cell-based; conditions: a549, 72 h
Galectin-3 [23] = molecular target: T6, Galectin-3; experiment: Binding affinity to mouse full-length galectin-3 assessed as dissociation constant by SPR analysis
Galectin-1 [24] = molecular target: T7, Galectin-1 (Mus musculus, UniProt P16045); experiment: Binding affinity to mouse Galectin-1 assessed as dissociation constant incubated for 30 mins in the presence of TDGA probe by fluorescence polarization assay
T7 sequence (P16045 whole entry): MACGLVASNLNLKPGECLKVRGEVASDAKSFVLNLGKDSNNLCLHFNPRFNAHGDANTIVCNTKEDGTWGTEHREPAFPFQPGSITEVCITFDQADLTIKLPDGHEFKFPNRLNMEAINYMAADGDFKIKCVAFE

Galectin-8 [25] = molecular target: T5, Galectin-8; experiment: Binding affinity to C-terminal human Galectin-8 assessed as dissociation constant by fluorescence polarization assay
[26] = Cytotoxicity against human A549 cells assessed as inhibition of cell growth incubated for 72 hrs by MTT assay; assay type: toxicity, cell-based
[27] = Volume of distribution at steady state in C57BL/6 mouse at 1 mg/kg, iv measured upto 8 hrs by HPLC analysis; assay type: ADME, organism-based; conditions: in vivo, read-out: Vdss
Jurkat [28] = experiment: Inhibition of galectin-1 induced apoptosis in human Jurkat T cells assessed as reduction in caspase-3 activation incubated for 24 hrs by CellEvent caspase-3/7 green fluorescent detection reagent based imaging analysis
[29] = Tmax in C57BL/6 mouse at 10 mg/kg, po or 1 mg/kg, iv by HPLC analysis; assay type: ADME, organism-based; conditions: in vivo
[30] = AUCinfinity in C57BL/6 mouse at 10 mg/kg, po or 1 mg/kg, iv by HPLC analysis; assay type: ADME, organism-based; design: dose 10 mg/kg, route po; conditions: in vivo
Galectin-1 [31] = molecular target: T7, Galectin-1; experiment: Binding affinity to mouse full-length galectin-1 assessed as dissociation constant by SPR analysis
[32] = Clearance in C57BL/6 mouse at 1 mg/kg, iv measured upto 8 hrs by HPLC analysis; assay type: ADME, organism-based; conditions: in vivo

T1 sequence (P17931 whole entry): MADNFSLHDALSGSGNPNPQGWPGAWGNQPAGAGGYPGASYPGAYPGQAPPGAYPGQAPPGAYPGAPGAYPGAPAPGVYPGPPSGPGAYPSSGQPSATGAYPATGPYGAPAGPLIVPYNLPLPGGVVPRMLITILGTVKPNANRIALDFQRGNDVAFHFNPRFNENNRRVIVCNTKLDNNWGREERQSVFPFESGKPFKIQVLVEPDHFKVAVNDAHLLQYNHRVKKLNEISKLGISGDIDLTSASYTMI

OC[C@H]1O[C@H](Sc2ccc(Cl)c(Cl)c2)[C@H](O)[C@@H](n2cc(-c3ncco3)nn2)[C@H]1O
Kd (Galectin-3 [1]): 11000 nM
Kd (Galectin-1 [2]): 2700 nM

OC[C@H]1O[C@H](Sc2ccc(Cl)c(Cl)c2)[C@H](O)[C@@H](n2cc(-c3ccsc3)nn2)[C@H]1O
Kd (Galectin-3 [1]): 2100 nM
hepatocyte CLint at 2 µM [3]: 15 µL/min/1e6 cells
hepatocyte CLint at 2 µM [4]: 4.9 µL/min/1e6 cells
Kd (Galectin-1 [2]): 280 nM
Papp B→A at 1.5 h, 10 µM [5]: 18 ×10⁻⁶ cm/s
Papp A→B at 1.5 h, 10 µM [6]: 10 ×10⁻⁶ cm/s
fraction unbound at 5 h, 2 µM [7]: 0.015
logD at 1 h [8]: 3.6
fraction unbound at 5 h, 2 µM [9]: 0.014

OC[C@H]1O[C@H](Sc2ccc(Cl)c(Cl)c2)[C@H](O)[C@@H](n2cc(-c3ncsn3)nn2)[C@H]1O
Kd (Galectin-3 [1]): 3400 nM
Kd (Galectin-1 [2]): 2000 nM

OC[C@H]1O[C@H](Sc2ccc(Cl)c(Cl)c2)[C@H](O)[C@@H](n2cc(-c3cscn3)nn2)[C@H]1O
Kd (Galectin-3 [1]): 8000 nM
hepatocyte CLint at 2 µM [3]: < 1.5 µL/min/1e6 cells
hepatocyte CLint at 2 µM [4]: 1.1 µL/min/1e6 cells
Kd (Galectin-1 [2]): 350 nM
Papp B→A at 1.5 h, 10 µM [5]: 50 ×10⁻⁶ cm/s
Papp A→B at 1.5 h, 10 µM [6]: 6 ×10⁻⁶ cm/s
fraction unbound at 5 h, 2 µM [7]: 0.033
logD at 1 h [8]: > 4
fraction unbound at 5 h, 2 µM [9]: 0.068

OC[C@H]1O[C@@H](S[C@@H]2O[C@H](CO)[C@H](O)[C@H](n3cc(-c4ccsc4)nn3)[C@H]2O)[C@H](O)[C@@H](n2cc(-c3ccsc3)nn2)[C@H]1O
Kd (Galectin-3 [10]): 65 nM
Kd (Galectin-1 [11]): < 10 nM

CN(C)CCNC(=O)COc1c2cccc1Cc1cccc(c1OCC(=O)NCCN(C)C)Cc1cccc(c1OCC(=O)NCCN(C)C)Cc1cccc(c1OCC(=O)NCCN(C)C)C2
inhibition (Jurkat [12]): inactive

OC[C@H]1O[C@H](Sc2ccc(Cl)c(Cl)c2)[C@H](O)[C@@H](n2cc(-c3ncc[nH]3)nn2)[C@H]1O
Kd (Galectin-3 [1]): 2100 nM
Kd (Galectin-1 [2]): 640 nM
Papp B→A at 1.5 h, 10 µM [5]: 25 ×10⁻⁶ cm/s
Papp A→B at 1.5 h, 10 µM [6]: 0.4 ×10⁻⁶ cm/s
logD at 1 h [8]: 2.3

OC[C@H]1O[C@H](Sc2cc(Cl)c(F)c(Cl)c2)[C@H](O)[C@@H](n2cc(-c3cscn3)nn2)[C@H]1O
Kd (Galectin-3 [1]): 2900 nM
hepatocyte CLint at 2 µM [3]: < 1.5 µL/min/1e6 cells
hepatocyte CLint at 2 µM [4]: < 1 µL/min/1e6 cells
Kd (Galectin-1 [2]): 330 nM
Papp B→A at 1.5 h, 10 µM [5]: 30 ×10⁻⁶ cm/s
Papp A→B at 1.5 h, 10 µM [6]: 9 ×10⁻⁶ cm/s
fraction unbound at 5 h, 2 µM [7]: 0.015
logD at 1 h [8]: 2.9
fraction unbound at 5 h, 2 µM [9]: 0.033

OC[C@H]1O[C@H](Sc2cncc(Br)c2)[C@H](O)[C@@H](n2cc(-c3ccsc3)nn2)[C@H]1O
Kd (Galectin-3 [1]): 1700 nM
Kd (Galectin-1 [2]): 680 nM
Papp B→A at 1.5 h, 10 µM [5]: 31 ×10⁻⁶ cm/s
Papp A→B at 1.5 h, 10 µM [6]: 4.5 ×10⁻⁶ cm/s
logD at 1 h [8]: 2

OC[C@H]1O[C@H](Sc2ccc(Cl)c(Cl)c2)[C@H](O)[C@@H](n2cc(-c3nncs3)nn2)[C@H]1O
Kd (Galectin-3 [1]): 1300 nM
Kd (Galectin-1 [2]): 1700 nM

OC[C@H]1O[C@H](Sc2cc(Cl)c(F)c(Cl)c2)[C@H](O)[C@@H](n2cc(-c3nccs3)nn2)[C@H]1O
Kd (Galectin-3 [1]): 2700 nM
Kd (Galectin-3 [13]): 62600 nM
hepatocyte CLint at 2 µM [3]: < 1.5 µL/min/1e6 cells
hepatocyte CLint at 2 µM [4]: < 1 µL/min/1e6 cells
Kd (Galectin-9 [14]): 23000 nM
Kd (Galectin-1 [2]): 410 nM
Papp B→A at 1.5 h, 10 µM [5]: 31 ×10⁻⁶ cm/s
Kd (Galectin-4 [15]): 2500 nM
Kd (Galectin-8 [16]): 65000 nM
Kd (Galectin-1 [17]): 644 nM
Cmax [18]: 6900 ng/mL
Kd (Galectin-4 [19]): 37000 nM
Papp A→B at 1.5 h, 10 µM [6]: 11 ×10⁻⁶ cm/s
Kd (Galectin-3 [20]): 5800 nM
Kd (Galectin-9 [21]): 16000 nM
fraction unbound at 5 h, 2 µM [7]: 0.013
bioavailability [22]: > 99%
Kd (Galectin-7): 60000 nM
Activity (A549): 46.6%
Kd (Galectin-3 [23]): 70400 nM
Kd (Galectin-1 [24]): 230 nM
logD at 1 h [8]: 3.1
Kd (Galectin-8 [25]): 130000 nM
fraction unbound at 5 h, 2 µM [9]: 0.038
IC50 at 72 h [26]: > 90000 nM
Vd [27]: 0.4 L/kg
IC50 (Jurkat [28]): 2300 nM
Tmax [29]: 30 min
AUC(0-inf) [30]: 3200 ng·h/mL
Kd (Galectin-1 [31]): 363 nM
clearance [32]: 7.5 mL/min/kg

OC[C@H]1O[C@H](Sc2cc(Cl)c(F)c(Cl)c2)[C@H](O)[C@@H](n2cc(-c3cncs3)nn2)[C@H]1O
Kd (Galectin-3 [1]): 3000 nM
Kd (Galectin-1 [2]): 22000 nM

OC[C@H]1O[C@H](Sc2ccc(Cl)c(Cl)c2)[C@H](O)[C@@H](n2cc(-c3cc(F)c(F)c(F)c3)nn2)[C@H]1O
Papp B→A at 1.5 h, 10 µM [5]: 20 ×10⁻⁶ cm/s
Papp A→B at 1.5 h, 10 µM [6]: 19 ×10⁻⁶ cm/s

OC[C@H]1O[C@H](Sc2cc(Cl)c(F)c(Cl)c2)[C@H](O)[C@@H](n2cc(-c3cccs3)nn2)[C@H]1O
Kd (Galectin-3 [1]): 1500 nM
Kd (Galectin-1 [2]): 970 nM
